The term solubility denotes the dissolved amount per volume that the medium holds. In general, microsomal CLint refers to the capacity of the preparation to metabolise the compound, expressed as a volume cleared per time. Usually melting point stands for the temperature of the solid-liquid transition.

In brackets after ≈: the same amount, converted by molar mass.

Data set [1] concerns M. tuberculosis H37Rv. The data set can be described thus: microbe, parasite or virus in culture. As to conditions: for MIC: Mycobacterium tuberculosis, H37RV, REMA, 7H9 broth, 6 days + 24 h resazurin, read-out: MIC99 H37Rv. The class given is cell-based. (The colour change of resazurin is a common sign of viable cells or microbes.)
The nature of data set [2]: Water solubility, shake flask method. The class given is physicochemical. As to conditions: for solubility at 3 days: 25 °C, water, thermodynamic from solid. Here is the method: Water solubility measurements were performed using the shake flask method ([28]). Approximately 1 ml of water was added to 1 mg of compound in an Eppendorf tube, followed by incubation for 3 days at 25°C with shaking at 800 rpm. Suspensions were centrifuged at 16,100 × g for 10 min, and the supernatant was filtered using 0.22-μm-pore size filters. Filtrates were injected onto a high-performance liquid chromatography (HPLC) column (Dionex), and the amount of compound was quantified using a calibration curve.

The next data set is described as follows: in vitro. As to conditions: for microsomal CLint at 1 μg/ml: microsomes, pH 7.4; for Microsomal stability / clearance (in words), human: human microsomes. On the procedure: The intrinsic clearance (CLint) of compounds was measured in both mouse and human liver microsomes. Briefly, 100 μg of mouse (CD-1) or human liver microsomes (both from Invitrogen) were mixed in 0.1 M phosphate buffer (pH 7.4) containing 0.01 μl of compound dissolved in dimethyl sulfoxide (DMSO) at 10 mg/ml in a final volume of 50 μl. In parallel, an NADPH-regenerating system (Promega) was prepared in 0.1 M phosphate buffer (pH 7.4). […] After 0, 5, 15, 30, and 60 min, the reactions were terminated by transferring […] into 100 μl of acetonitrile and placing the mixture on ice for 30 min for full protein precipitation. […] After 0 and 60 min, the reactions were terminated, prepared and analyzed as previously described.

For data set [3], the system named is M. tuberculosis H37Rv. The data set can be described thus: Murine model of chronic TB. As to conditions: BALB/cByJ mice. The class given is in vivo, Mycobacterium tuberculosis.
For a further data set, the system named is HepG2 cells. Particulars: for TD50: 3 days; for Selective index: ratio TD50 (HepG2) to MIC99 (H37Rv).
For data set [4], the system named is M. tuberculosis H37Rv. The arrangement: method as in PMID 24500695. As to conditions: ref [5]; cited from earlier work.
For data set [5] the following is noted: mouse microsomes; cited from earlier work.
For data set [6] the following is noted: human microsomes; cited from earlier work.
The mark [7] stands for this setting: 50 mg/kg by gavage 5 days a week for 4 weeks.
Setting [8] is: 25 mg/kg by gavage 5 days a week for 4 weeks.

Turning to `O=c1nc(N2CCN(S(=O)(=O)C3CC3)CC2)sc2c([N+](=O)[O-])cc(C(F)(F)F)cc12` [compound 11626091], the melting point lay in the range of 201 to 204 °C. Besides, the “Fold less active than MCZ (MIC99 relative to MCZ)” value in the data set on M. tuberculosis H37Rv [1] (H37Rv) amounted to 15 fold. Also, in the data set on M. tuberculosis H37Rv [1], the MIC came to 3 ng/mL. Also, in [2], the solubility at 3 days stood at 8.6 ± 3.8 µg/mL (≈ 18.5 µM). The intrinsic metabolic clearance (microsomal CLint) at 1 μg/ml in “in vitro” (CD-1, mouse) came out at 2.7 µL/min/mg. In addition, the “Microsomal stability / clearance (in words), human” value in “in vitro” is “lowest clearances”. In “in vitro” (human), this molecule yielded a microsomal CLint at 1 μg/ml of 9.7 µL/min/mg. Also, in “in vitro” (mouse microsomes), the “Microsomal stability / clearance (in words), mouse” value is recorded as “lowest clearances”. Also, in the data set on M. tuberculosis H37Rv [3] (setting [7]), the “Bacterial burden in lungs lower than untreated control” value was 0.46 log10 CFU and the “Bacterial burden in spleens lower than untreated control” value turned out to be 1.03 log10 CFU. In addition, in the data set with HepG2 cells (HepG2 cells), the “Concentration of mild cytotoxicity” value is reported as “around 10 μg/ml” and the TD50 amounted to 8.10 µg/mL. Besides, the Selective index with HepG2 cells is 2,700.
As for `O=c1nc(N2CCN(CC3CCCCC3)CC2)sc2c([N+](=O)[O-])cc(C(F)(F)F)cc12` [PBTZ169, macozinone, reference compound], in the data set on M. tuberculosis H37Rv [1], the MIC turned out to be 0.2 ng/mL. The “Times more soluble in water than calculated” value in data set [2] is 400 times. In the data set with M. tuberculosis H37Rv [3] (setting [8]), the “Bacterial burden in lungs lower than untreated control” value was 1.03 log10 CFU and the “Bacterial burden in spleens lower than untreated control” value stood at 1.47 log10 CFU. The molecule also came in with a TD50 in the data set on HepG2 cells (HepG2 cells) of 44.00 µg/mL. Besides, the “MIC against M. tuberculosis” value with M. tuberculosis H37Rv [4] is reported as 0.3 nM (≈ 0.137 ng/mL). Moreover, the CLint mouse microsome in data set [5] is on record as 36.7 μl/min/mg protein. The CLint human microsome in data set [6] is given as 28 μl/min/mg protein.
`O=c1nc(N2CCN(S(=O)(=O)c3cccc4cnccc34)CC2)sc2c([N+](=O)[O-])cc(C(F)(F)F)cc12` [compound 11626094] gave a melting point of 243 to 245 °C. The MIC with M. tuberculosis H37Rv [1] was found to be 10 ng/mL. Besides, in [2], the “Times less soluble in water than 11626095, 11626092 and 11626091” value is “at least 100 times”; the solubility at 3 days amounted to 0.088 ± 0.04 µg/mL (≈ 0.16 µM). In “in vitro” (CD-1, mouse), this molecule gave a microsomal CLint at 1 μg/ml of 24 µL/min/mg. The “Microsomal stability / clearance (in words), human” value in “in vitro” is listed as “highly unstable”. In “in vitro” (human), this molecule showed a microsomal CLint at 1 μg/ml of 277 µL/min/mg. Also, in the data set on HepG2 cells (HepG2 cells), the “Cytotoxicity (in words)” value is recorded as “not cytotoxic” and the TD50 came to 100.00 µg/mL. Moreover, in the data set on HepG2 cells, the Selective index is 10,000.
Take `C[C@H]1COC2(CCN(c3nc(=O)c4cc(C(F)(F)F)cc([N+](=O)[O-])c4s3)CC2)O1` [BTZ043]: in data set [5], the CLint mouse microsome is given as 16.5 μl/min/mg protein. The CLint human microsome in data set [6] is 4.20 μl/min/mg protein.

The record behind these values is article PMC6153800, “Structure-Based Drug Design and Characterization of Sulfonyl-Piperazine Benzothiazinone Inhibitors of DprE1 from Mycobacterium tuberculosis” (Antimicrobial Agents and Chemotherapy, 2018).
